Test results taken from patent US8461389B2, “Psycho-pharmaceuticals” (University College Dublin, National University of Ireland, …, priority 2008, dated 2013).

Experiments:
[1] = system: patients with depressive states; conditions: Azoulay, Le Bezu and Leyritz 1956; cited from earlier work
Sigma 1 receptor = target: T1, Sigma 1 receptor (Homo sapiens, UniProt Q99720); assay: Novascreen receptor affinity screen (competition with reference ligand), Sigma 1; assay type: binding; conditions: 1 μM Captodiamine competing with a reference ligand; read-out: percent target inhibition, Sigma 1 receptor
T1 construct: Novascreen (contract screen)
T1 sequence (Q99720 whole entry, species assumed): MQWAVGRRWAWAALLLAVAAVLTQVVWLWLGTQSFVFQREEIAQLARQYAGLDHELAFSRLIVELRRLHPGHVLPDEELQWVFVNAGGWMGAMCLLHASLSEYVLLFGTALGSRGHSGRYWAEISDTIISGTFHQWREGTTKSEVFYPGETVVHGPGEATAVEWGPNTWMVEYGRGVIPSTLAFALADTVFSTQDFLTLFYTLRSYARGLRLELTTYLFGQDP
Description: The Structure (FIG. 9A), receptor affinity (FIG. 9B), pharmacokinetics (FIG. 9C) and growth factor modulation (FIG. 9D) of Captodiamine are provided. Analysis of receptor affinities was performed by Novascreen™ and those displacing >20% of the natural ligand are indicated by the filled boxes. Blood levels of Captodiamine were determined by GC mass spectroscopy. In separate samples taken from a cannulated jugular at increasing time intervals following a single intraperitoneal injection of tha drug (5 mg/kg). Growth factor analysis was performed using tissue homogenates and ELISA assays specific for each growth factor (Promega). Values were analysed using a Student t-test and those with a p value<0.05 were accepted as significant and are indicated with an asterisk.
The higher the target inhibition value, the greater the affinity Captodiamine has for this particular receptor as it displaces a greater proportion of the reference ligand. This assay is an automated high throughput assay performed on cell lines that express only one type of receptor and was carried out by Novascreen (www.novascreen.com). Receptor affinity is a good starting point for determining the mechanism of action for a particular compound.

C57B16 mice [2] = assay: Open-field test; assay type: in vivo; conditions: 3 and 5 mg/kg i.p. once daily for 7 days; FIG. 3
Description: The open field test is designed to measure behavioural responses such as locomotor activity, hyperactivity, and exploratory behaviors. Open field is also used as a measure of anxiety. Rats and mice tend to avoid brightly illuminated, novel, open spaces, so the open field environment acts as an anxiogenic stimulus and allows for measurement of anxiety-induced locomotor activity and exploratory behaviors. Like the elevated maze test described below, open field testing is a one trial test with little or no impact on the animal's subsequent behavior. The apparatus for the open field test was a square (100 cm by 100 cm) made of white Perspex. Each rat is placed in a corner of the field and its behavior recorded for five minutes. All activity is recorded by a video camera mounted above the open field and scored in real-time (or digitized and scored later) by the advanced motion-recognition software package Ethovision by Noldus, that detects and analyzes the movements of the rat or mouse. The total distance, average speed, rearing/elongation behavior, and time spent in various parts of the field (such as, for example, the border areas vs. the open, middle area) is measured and analysed. Testing is carried out in a temperature, noise and light controlled room.
The Experimental protocol employed in the behavioural evaluation of Captodiamine is outlined in FIG. 7. […]

C57B16 mice [3] = assay: Water maze spatial learning; assay type: in vivo; conditions: i.p. once daily for 7 days; FIG. 6
Description: The test apparatus consists of a large circular pool (1 m diameter, 80 cm high, temperature 26° C.) with a platform (11 cm diameter) submerged 1.5 cm below the surface. Both the pool and the platform were constructed of black polyvinyl plastic, which offered no intra-maze cues. The experimental room contained several extra-maze visual cues. During training the platform was hidden in the same quadrant 30 cm away from the edge of the maze. There were five trials, each of them beginning with the rat facing the wall of the maze in one of three different locations. The time taken for the rat to find the platform within a 90 s period was recorded. Probe trials where the platform was removed from the maze and the time the animal spent in the target quadrant were also performed. […]
Finally, drugs inducing neurobehavioural profile are evaluated in the water maze spatial learning paradigm, a robust task of information acquisition and consolidation—a measure of pro-cognitive action. […]
The influence of Captodiamine on open-field behaviour (FIG. 3), novel object recognition (FIG. 8), forced swim test (FIGS. 10A and 10B) and water maze spatial learning (FIG. 6). […] Values were analysed using a two way ANOVA and Student t-test and those with a p values<0.05 were accepted as significant and where appropriate are indicated with an asterisk.

CCCCSc1ccc(C(SCCN(C)C)c2ccccc2)cc1 (centres unmarked) [Captodiamine, 2-[(4-butylsulfanylphenyl)-phenyl-methyl]sulfanyl-N,N-dimethyl-ethanamin]
clinical usefulness in depressive states resistant to largactil [1]: useful in only one patient
inhibition at 1 µM (Sigma 1 receptor): > 90%
basal locomotion in the open-field paradigm (C57B16 mice [2]): no influence on basal locomotion
time spent in the centre of the open-field arena (C57B16 mice [2]): significantly more time in the centre
water maze spatial learning task performance (C57B16 mice [3]): significant pro-cognitive action
